Activity calls are given as the source filed them. No cut-off for these calls is given here. A value given as a limit tells only on which side of the number the result lay.

We go through eight compounds from ChEMBL document CHEMBL5532651, “HDAC specificity and kinase off-targeting by purine-benzohydroxamate anti-hematological tumor agents” (Eur J Med Chem, 2024).

Data set [1] deals with MCF7. Kind of data set: cells. It is filed as functional, cell-based. Conditions: Homo sapiens.
The test system of data set [2] is HCT-116. Nature of the data set: cells. Conditions: Homo sapiens.
Data set [3] deals with Jurkat. Nature of the data set: cells. Particulars: Homo sapiens.
The subject of data set [4] is NAMALVA. Kind of data set: cells. Conditions: Homo sapiens.
The target of data set [5] is T1, Protein deacetylase HDAC6 (Homo sapiens, UniProt Q9UBN7).
T1 sequence (Q9UBN7 whole entry): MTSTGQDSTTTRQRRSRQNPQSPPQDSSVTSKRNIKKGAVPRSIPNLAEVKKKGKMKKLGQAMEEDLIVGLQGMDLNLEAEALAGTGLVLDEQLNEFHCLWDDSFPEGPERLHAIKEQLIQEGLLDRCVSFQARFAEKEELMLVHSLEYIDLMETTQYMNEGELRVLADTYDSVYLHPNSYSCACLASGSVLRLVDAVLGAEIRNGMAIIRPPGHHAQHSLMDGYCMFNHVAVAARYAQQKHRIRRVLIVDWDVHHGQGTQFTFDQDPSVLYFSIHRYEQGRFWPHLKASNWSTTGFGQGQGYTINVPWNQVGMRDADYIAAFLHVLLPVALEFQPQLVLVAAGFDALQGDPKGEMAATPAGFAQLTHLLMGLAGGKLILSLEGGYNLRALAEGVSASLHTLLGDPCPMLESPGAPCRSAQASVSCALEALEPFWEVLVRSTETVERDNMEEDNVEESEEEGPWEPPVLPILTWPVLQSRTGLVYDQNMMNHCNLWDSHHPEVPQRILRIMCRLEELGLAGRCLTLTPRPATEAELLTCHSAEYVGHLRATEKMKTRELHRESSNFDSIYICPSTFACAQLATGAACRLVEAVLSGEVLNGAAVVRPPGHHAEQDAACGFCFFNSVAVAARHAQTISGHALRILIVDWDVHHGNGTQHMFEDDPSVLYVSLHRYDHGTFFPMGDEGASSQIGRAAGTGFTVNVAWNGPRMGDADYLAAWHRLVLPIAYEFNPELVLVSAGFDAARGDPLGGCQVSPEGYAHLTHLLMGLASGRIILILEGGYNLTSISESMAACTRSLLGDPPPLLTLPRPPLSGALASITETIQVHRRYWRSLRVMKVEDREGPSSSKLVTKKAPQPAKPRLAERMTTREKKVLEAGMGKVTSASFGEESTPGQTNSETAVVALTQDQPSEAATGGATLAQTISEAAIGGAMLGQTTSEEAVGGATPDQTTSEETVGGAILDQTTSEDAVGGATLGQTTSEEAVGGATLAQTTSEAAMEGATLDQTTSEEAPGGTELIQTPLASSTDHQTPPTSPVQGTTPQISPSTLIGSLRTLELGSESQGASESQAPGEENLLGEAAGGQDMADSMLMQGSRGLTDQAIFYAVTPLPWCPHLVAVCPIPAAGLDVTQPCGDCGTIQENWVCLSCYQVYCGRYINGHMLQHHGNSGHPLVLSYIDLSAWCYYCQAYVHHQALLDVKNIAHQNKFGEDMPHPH
Kind of data set: Inhibition of HDAC6 (unknown origin).

Data set [6] addresses T2, CYP1A2 (Homo sapiens, UniProt P05177).
T2 sequence (P05177 whole entry): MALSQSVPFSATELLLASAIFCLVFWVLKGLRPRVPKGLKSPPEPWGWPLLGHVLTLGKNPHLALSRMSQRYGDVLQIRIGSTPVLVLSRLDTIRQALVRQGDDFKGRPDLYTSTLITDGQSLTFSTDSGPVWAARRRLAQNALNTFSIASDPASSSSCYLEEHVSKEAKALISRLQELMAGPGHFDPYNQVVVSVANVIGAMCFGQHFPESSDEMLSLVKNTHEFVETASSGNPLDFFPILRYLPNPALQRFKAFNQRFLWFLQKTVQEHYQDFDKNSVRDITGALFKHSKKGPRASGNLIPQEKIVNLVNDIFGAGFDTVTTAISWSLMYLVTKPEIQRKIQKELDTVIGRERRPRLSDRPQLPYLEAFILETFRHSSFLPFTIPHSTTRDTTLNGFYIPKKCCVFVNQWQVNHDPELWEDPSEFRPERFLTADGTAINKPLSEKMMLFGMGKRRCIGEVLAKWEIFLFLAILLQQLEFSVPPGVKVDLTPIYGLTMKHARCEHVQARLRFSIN
Nature of the data set: Inhibition of CYP1A2 in liver microsomes (unknown origin) at 10 uM incubated for 10 mins relative to control. Type of data set: ADME, Microsome.

Data set [7] concerns the target CYP2C9 (Homo sapiens, UniProt P11712). Nature of the data set: Inhibition of CYP2C9 in liver microsomes (unknown origin) at 10 uM incubated for 10 mins relative to control. It is filed as ADME, Microsome.
Data set [8] deals with Jurkat. Nature of the data set: Cytotoxicity against human Jurkat cells assessed as cell growth inhibition at 0.03 to 1.8 uM by MTT assay. Type of data set: functional, cell-based. Conditions: dose 0.03-1.8 µM, time lower 24.0 hrs, time upper […], TDE = time-dependent effect.
For data set [9], the system named is NAMALVA. Nature of the data set: Cytotoxicity against human NAMALVA cells assessed as cell growth inhibition at 0.04 to 17.4 uM by MTT assay. It is filed as functional, cell-based. Particulars: dose 0.04-17.4 µM, time lower 24.0 hrs, time upper […], TDE = time-dependent effect.
Data set [10] concerns U-937. Kind of data set: Cytotoxicity against human U-937 cells assessed as cell growth inhibition at 1.6 to 6.4 uM by MTT assay. Type of data set: functional, cell-based. Particulars: dose 1.6-6.4 µM, time lower 24.0 hrs, time upper […], TDE = time-dependent effect.
Data set [11] has as its system U-937. Kind of data set: Cytotoxicity against human U-937 cells assessed as cell growth inhibition incubated for 24 to 72 hrs by MTT assay. It is filed as functional, cell-based. Conditions: time lower 24.0 hrs, time upper […].
The subject of data set [12] is Jurkat. Nature of the data set: Inhibition of cell proliferation of human Jurkat cells assessed as reduction in Ki-67 expression at IC50 measured after 48 hrs by flow cytometry. It is filed as functional, cell-based.
Data set [13] concerns U-937. Kind of data set: Inhibition of cell proliferation of human U-937 cells assessed as reduction in Ki-67 expression at IC50 measured after 48 hrs by flow cytometry. Type of data set: functional, cell-based.
The test system of data set [14] is NAMALVA. Nature of the data set: Inhibition of cell proliferation of human NAMALVA cells assessed as reduction in Ki-67 expression at IC50 measured after 48 hrs by flow cytometry. It is filed as functional, cell-based.
The test system of data set [15] is Jurkat. Kind of data set: Induction of apoptosis in human Jurkat cells at IC50 measured after 48 hrs by flow cytometry. Type of data set: functional, cell-based.
Data set [16] deals with U-937. Kind of data set: Induction of apoptosis in human U-937 cells at IC50 measured after 48 hrs by flow cytometry. Type of data set: functional, cell-based.
For data set [17], the system named is NAMALVA. Nature of the data set: Induction of apoptosis in human NAMALVA cells at IC50 measured after 48 hrs by flow cytometry. It is filed as functional, cell-based.
In data set [18] the target is T1, Protein deacetylase HDAC6. Kind of data set: Inhibition of full-length recombinant human HDAC6 expressed in baculovirus infected Sf9 cells using RHKK(Ac)AMC as substrate preincubated for 5 to 10 mins followed by substrate addition measured after 2 hrs by fluorescence based assay.
The target of data set [19] is T3, Protein deacetylase HDAC6 (Homo sapiens) (UniProt Q9UBN7).
T3 sequence (whole entry): T1 sequence (Q9UBN7 whole entry)
Kind of data set: Inhibition of HDAC6 in human Jurkat cells assessed as increase in acetyl-histone H3 level at IC50 incubated for 48 hrs by Western blot analysis. It is filed as cell-based.

For data set [20], the target named is T3, Protein deacetylase HDAC6 (Homo sapiens). Kind of data set: Inhibition of HDAC6 in human NAMALVA cells assessed as increase in acetyl-histone H3 level at IC50 incubated for 48 hrs by Western blot analysis. It is filed as cell-based.
The target is the same in data set [21]. Kind of data set: Inhibition of HDAC6 in human U-937 cells assessed as increase in acetyl-histone H3 level at IC50 incubated for 48 hrs by Western blot analysis. It is filed as cell-based.
The target is the same in data set [22]. Kind of data set: Inhibition of HDAC6 in human Jurkat cells assessed as increase in acetyl-alpha-tubulin level at IC50 incubated for 48 hrs by Western blot analysis. It is filed as cell-based.
Data set [23] has the same target. Kind of data set: Inhibition of HDAC6 in human NAMALVA cells assessed as increase in acetyl-alpha-tubulin level at IC50 incubated for 48 hrs by Western blot analysis. It is filed as cell-based.
Data set [24] shares this target. Kind of data set: Inhibition of HDAC6 in human U-937 cells assessed as increase in acetyl-alpha-tubulin level at IC50 incubated for 48 hrs by Western blot analysis. It is filed as cell-based.
Data set [25] deals with CYP2D6 (Homo sapiens, UniProt P10635). Nature of the data set: Inhibition of CYP2D6 in liver microsomes (unknown origin) at 10 uM incubated for 10 mins relative to control. It is filed as ADME, Microsome.
Data set [26] can be described thus: Stability in human liver microsome assessed as half life at 1 uM measured for 60 mins by LC-MS/MS analysis. Type of data set: ADME. Conditions: liver microsomes.
Data set [27] in a line: Stability in mouse liver microsome assessed as half life at 1 uM measured for 60 mins by LC-MS/MS analysis. Type of data set: ADME. Particulars: liver microsomes.
Data set [28] can be described thus: Stability in human liver microsome assessed as intrinsic clearance at 1 uM measured for 60 mins by LC-MS/MS analysis. Type of data set: ADME. Conditions: liver microsomes, read-out: CLH.
Data set [29] in a line: Stability in mouse liver microsome assessed as intrinsic clearance at 1 uM measured for 60 mins by LC-MS/MS analysis. It is filed as ADME. Particulars: liver microsomes, read-out: CLH.

Chain of CYP2D6 (P10635 whole entry): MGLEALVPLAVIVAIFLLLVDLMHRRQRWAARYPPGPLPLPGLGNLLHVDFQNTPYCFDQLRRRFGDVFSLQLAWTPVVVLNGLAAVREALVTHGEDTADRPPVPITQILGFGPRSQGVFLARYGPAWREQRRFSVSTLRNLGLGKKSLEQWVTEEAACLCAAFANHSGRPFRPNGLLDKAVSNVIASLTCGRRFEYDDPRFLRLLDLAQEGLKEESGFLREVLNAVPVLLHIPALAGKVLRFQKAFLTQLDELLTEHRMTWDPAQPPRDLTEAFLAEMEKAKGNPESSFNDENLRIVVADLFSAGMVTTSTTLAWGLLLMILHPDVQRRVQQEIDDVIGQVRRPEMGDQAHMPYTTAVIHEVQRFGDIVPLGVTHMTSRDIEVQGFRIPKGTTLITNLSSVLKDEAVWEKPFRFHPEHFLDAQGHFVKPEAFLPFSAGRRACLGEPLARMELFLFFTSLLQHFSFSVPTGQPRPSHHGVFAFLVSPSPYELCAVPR
Chain of CYP2C9 (P11712 whole entry): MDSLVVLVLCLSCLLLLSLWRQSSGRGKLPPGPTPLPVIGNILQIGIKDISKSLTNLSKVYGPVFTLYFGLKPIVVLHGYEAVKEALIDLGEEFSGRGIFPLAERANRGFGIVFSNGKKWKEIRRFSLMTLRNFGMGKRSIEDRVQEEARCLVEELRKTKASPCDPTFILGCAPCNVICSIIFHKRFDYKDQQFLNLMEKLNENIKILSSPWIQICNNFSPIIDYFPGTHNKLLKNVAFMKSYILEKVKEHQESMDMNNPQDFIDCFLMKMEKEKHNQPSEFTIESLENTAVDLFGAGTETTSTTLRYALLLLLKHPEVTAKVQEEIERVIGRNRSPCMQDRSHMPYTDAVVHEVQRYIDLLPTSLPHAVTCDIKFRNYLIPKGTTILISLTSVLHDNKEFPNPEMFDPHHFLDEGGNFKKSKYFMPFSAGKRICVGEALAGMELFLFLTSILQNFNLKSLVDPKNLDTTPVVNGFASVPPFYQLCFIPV

Regarding `O=C(NO)c1ccc(Cn2cnc3c(Nc4ccc(Cl)c(C(F)(F)F)c4)ncnc32)cc1`, the IC50 in [1] is 13200 nM; in [2], 2900 nM; in [3], 250 nM; in data set [4], 260 nM.
As for `O=C(NO)c1ccc(Nc2ncnc3[nH]cnc23)cc1`, the half-inhibitory concentration (IC50) in [1], in [2], in [3] and in data set [4] was over 50000 nM each time.
In the case of `COc1ccc(Nc2ncnc3c2ncn3Cc2ccc(C(=O)NO)cc2)cc1OC`, the IC50 in [1] was over 50000 nM; in [2], 16300 nM; in data set [3] it was 600 nM; in data set [4], 500 nM.
Regarding `O=C(/C=C/c1cccc(S(=O)(=O)Nc2ccccc2)c1)NO` [BELINOSTAT], the 50% inhibitory concentration (IC50) in data set [5] worked out at 2600 nM.
Consider `CC(=O)N1CCN(c2ccc(OCC3COC(Cn4ccnc4)(c4ccc(Cl)cc4Cl)O3)cc2)CC1` (centres undefined) [KETOCONAZOLE], for which the inhibition at 10 min, 10 µM in data set [6] and in data set [7] was 10% in each case.
For the compound `O=C(NO)c1ccc(Cn2cnc3c(Nc4ccc(Br)cc4F)ncnc32)cc1`, the concentration for half-maximal inhibition (IC50) in data set [1] was found to be 21700 nM; in [18] it was 184 nM; in data set [2] it was 21700 nM; in data set [3], 30 nM; in data set [4], 40 nM. The inhibition result in data set [8] is “Tde”; in data set [9], “Tde”; in data set [10], “Tde”; in data set [11], “Dose-Dependent Effect”. The inhibition result in [12], in [13], in data set [14], in [19], in data set [20] and in [21] was “Active” each time. In addition, the inhibition result in data set [22], in data set [23] and in data set [24] was “Active” each time. Further, the outcome in [15], in data set [16] and in [17] was Active. Also, the values for the inhibition at 10 min, 10 µM in data set [6], in data set [7] and in [25] were 47%, 42% and 10%, respectively. Moreover, the half-life at 1 µM in data set [26] was over 120 min; in [27], 35 min. Moreover, the microsomal CLint at 1 µM was under 6 µL/min/mg in data set [28] and 20 µL/min/mg in data set [29].
With `CCN(CC)CCNC(=O)c1c(C)[nH]c(/C=C2\C(=O)Nc3ccc(F)cc32)c1C` [SUNITINIB], the values for the half-life at 1 µM in data set [26] and in data set [27] were 33 min and 12 min, respectively. Moreover, the microsomal CLint at 1 µM was found to be 21 µL/min/mg in data set [28] and 58 µL/min/mg in data set [29].
Regarding `Nc1ccc(S(=O)(=O)Nc2ccnn2-c2ccccc2)cc1` [SULFAPHENAZOLE], the inhibition at 10 min, 10 µM in data set [6] and in [25] was 10% throughout.
